Where two headings read alike, the source gives them in different places.
Legend:
[1] = system: human CD45+ cells (granulocytes-based progenitor cells); test: Colony forming test on granulocytes-based myelopoiesis progenitor cells, human CD45+ bone marrow cells of humanized Tg-NOG mouse; format: cell-based; settings: for influence on the granulocytes-based progenitor cells in the bone marrow, human vs mouse: colony forming test, comparison hCD45+ vs mCD45+; for IC50: concentration at which formation of 50% of granulocyte-derived colonies is inhibited, read-out: IC50 (nM) hCD45+; for IC50 / IC90: cultured 16 days; for IC90: concentration at which formation of 90% of granulocyte-derived colonies is inhibited, read-out: IC90 (nM) hCD45+
Source text: (§1) The mouse at week 14 after the transplantation of the hCD34^+ cells derived from the human cord blood was euthanized by removing the blood from the abdominal aorta under anesthesia of isoflurane. Then, the femur was collected. The femur was sterilely washed using the Iscove's Modified Dulbecco's Medium (IMDM, available from Life Technologies) to prepare a suspension of cells. The suspension of cells was passed through a nylon filter (pore size of 35 μm, Cell Strainer, available from BD Biosciences) to obtain a filtrate as a solution of the bone marrow cells. A portion of the solution of the bone marrow cells was subjected to FACS analysis to calculate a ratio between the human-derived leucocytes (hCD45^+) and the mouse-derived leucocytes (mCD45^+).
The human 45^+ cells were suspended in a methyl cellulose medium (MethoCult H4534, available from Stem cell technologies) so as to be 5×10^4 cells/1.1 mL/dish. Then, EHC was added at 0.14 nM, 0.4 nM, 1.2 nM, 3.7 nM, 11 nM, or 33 nM. Meanwhile, PTX was added at 0.12 nM, 0.4 nM, 1.1 nM, 3.3 nM, 10 nM, 30 nM, or 90 nM. The resultant was seeded in a dish and was cultured for 16 days at 37° C. under 5% CO2.
(§2) As the vehicle control, dimethyl sulfoxide (DMSO, final concentration of 0.002 v/v %) was used. For each concentration, two dishes were used.
(§3) After a period of the cultivation was completed, the number of the colonies derived from the granulocytes formed was counted and an average number of the colonies in each concentration was calculated. An average number of the colonies in the vehicle control was considered as 100%. The average number of the colonies in each concentration was considered as a relative value (IC50 and IC90). Here, the IC50 means a concentration at which formation of 50% of the colonies is inhibited and the IC90 means a concentration at which formation of 90% of the colonies is inhibited.
(§4) The collection, preparation, and cultivation of the bone marrow cells and the calculation of the percentage of inhibition of colony formation were performed in the same manner as in Example 3-1.
The human CD45^+ cells were exposed to nogitecan at an exposure concentration of 0.41 nM, 1.2 nM, 3.7 nM, 11.1 nM, 33.3 nM, or 100 nM. Meanwhile, the other human CD45^+ cells were exposed to oxaliplatin at an exposure concentration of 123 nM, 370 nM, 1,111 nM, 3,333 nM, 10,000 nM, or 30,000 nM.
(§5) A physiological saline solution was used for the vehicle control of nogitecan and a distilled water was used for the vehicle control of oxaliplatin.
(§6) An average number of the colonies in the vehicle control was considered as 100%. The average number of the colonies in each concentration was considered as a relative value (IC50 and IC90). Here, the IC50 means a concentration at which formation of 50% of the colonies is inhibited and the IC90 means a concentration at which formation of 90% of the colonies is inhibited.

[2] = system: mouse CD45+ cells (granulocytes-based progenitor cells); test: Colony forming test on granulocytes-based myelopoiesis progenitor cells, mouse CD45+ bone marrow cells of humanized Tg-NOG mouse; format: cell-based; settings: cultured 8 days; for IC50: concentration at which formation of 50% of granulocyte-derived colonies is inhibited, read-out: IC50 (nM) mCD45+; for IC90: concentration at which formation of 90% of granulocyte-derived colonies is inhibited, read-out: IC90 (nM) mCD45+
Source text: as §1
The mouse CD45^+ cells were suspended in a methyl cellulose medium (available from MethoCult GF M3534, Stem cell technologies) so as to be 2×10^4 cells/1.1 mL/dish. Then, EHC (1.2 nM, 3.7 nM, 11 nM, 33 nM, 100 nM, or 300 nM) was added. Meanwhile, PTX (0.12 nM, 0.4 nM, 1.1 nM, 3.3 nM, 10 nM, 30 nM, or 90 nM) was added. The resultant was seeded in a dish and was cultured for 8 days at 37° C. under 5% CO2.
as §2, §3, §4
The mouse CD45^+ cells were exposed to nogitecan at an exposure concentration of 3.7 nM, 11.1 nM, 33.3 nM, 100 nM, 300 nM, or 900 nM. Meanwhile, the other mouse CD45^+ cells were exposed to oxaliplatin at an exposure concentration of 13.7 nM, 41.2 nM, 123 nM, 370 nM, or 1,111 nM.
as §5, §6

[3] = system: human-derived leucocytes (hCD45+) and human-derived granulocytes (hCD66b+); format: in vivo; settings: oxaliplatin 20 mg/kg single intravenous
Protocol: (§7) Six-week-old Tg-NOG mice (24 females) were irradiated with X-rays of 2.5 Gy. After a period of from 3 hours to 4 hours, the CD34^+ cells derived from the human cord blood were transplanted at 40,000 cells/body. At 5 week after the transplantation, the peripheral blood was collected from the orbital sinus under anesthesia of isoflurane. Engraftment thereof in the peripheral blood was confirmed.
(§8) Eleven mice suitable for the evaluation were selected and divided into the control group (5 mice) and the oxaliplatin administration group (6 mice). The mice in the control group received a 5 w/v % glucose solution from the tail vein through single intravenous administration. Meanwhile, two mice of the 6 mice in the oxaliplatin administration group received oxaliplatin at 20 mg/kg (2 mg/mL, 10 mL/kg), another two mice in the oxaliplatin administration group received oxaliplatin at 30 mg/kg (3 mg/mL, 10 mL/kg), and the other two mice in the oxaliplatin administration group received oxaliplatin at 40 mg/kg (4 mg/mL, 10 mL/kg) from the tail vein through single intravenous administration. Regarding assignment of the animals, the animals were grouped so that an average value of the number of the human leucocytes and that of the number of the human granulocytes were almost the same.
(§9) The peripheral blood was collected from the orbital sinus under anesthesia of isoflurane at day 4, day 7, day 14, day 17, day 21, and day 28 after the administration. Then, the number of the leucocytes in the peripheral blood was measured with FACS. The animals administered at 30 mg/kg and the animals administered at 40 mg/kg died by day 7 after the administration.

[4] = system: mouse-derived leucocytes (mCD45+) and mouse-derived granulocytes (mGr-1+); format: in vivo; settings: oxaliplatin 20 mg/kg single intravenous
Protocol: as §7, §8, §9

Tg-NOG mouse = test: Survival and general condition of humanized Tg-NOG mice after single intravenous administration; format: in vivo
Protocol: as §7, §8, §9

[5] = Homo sapiens, Bone marrow cell, 384 h
[6] = Mus musculus, Bone marrow cell, 192 h

Compound	influence on the granulocytes-based progenitor cells in the bone marrow, human vs mouse [1]	IC50 [1] [nM]	IC90 [1] [nM]	IC50 [2] [nM]	IC90 [2] [nM]	IC50 [1, 5] [nM]	IC90 [1, 5] [nM]	IC50 [2, 6] [nM]	IC90 [2, 6] [nM]	change of human leucocytes in peripheral blood [3]	day from which tendency of recovering of human-derived granulocytes was presented [3] [days]	change of human-derived granulocytes ([3]; day 4 after the administration)	difference between species: influence on the reduction in the leucocytes ([3]; human vs mouse leucocytes)	change of mouse-derived leucocytes (mCD45+) and mouse-derived granulocytes (mGr-1+) [4]	general condition of animals (Tg-NOG mouse; oxaliplatin 20 mg/kg single intravenous, day 17 after the administration)	death of animals, day after the administration (Tg-NOG mouse; oxaliplatin 30 mg/kg single intravenous) [days]	death of animals, day after the administration (Tg-NOG mouse; oxaliplatin 40 mg/kg single intravenous) [days]
CCc1c2c(nc3ccc(O)cc13)-c1cc3c(c(=O)n1C2)COC(=O)[C@]3(O)CC [EHC, 7-Ethyl-10-hydroxycamptothecin]	higher in the human than in the mouse	11.3	12.9	106	122	–	–	–	–	–	–	–	–	–	–	–	–
CC[C@@]1(O)C(=O)OCc2c1cc1n(c2=O)Cc2cc3c(CN(C)C)c(O)ccc3nc2-1 [Nogitecan, nogitecan]	higher in the human than in the mouse	–	–	–	–	8.7	24.3	142	305	–	–	–	–	–	–	–	–
O=C1[O][Pt]2([NH][C@@H]3CCCC[C@H]3[NH]2)[O]C1=O [Oxaliplatin, oxaliplatin]	higher in the mouse than in the human	2770	4660	434	846	–	–	–	–	no considerable reduction	≥ 7	slightly decreased	more strongly developed in the human than in the mouse	considerably decreased	moribund condition	≤ 7	≤ 7
CC(=O)O[C@H]1C(=O)[C@@]2(C)[C@H]([C@H](OC(=O)c3ccccc3)[C@]3(O)C[C@H](OC(=O)[C@H](O)[C@@H](NC(=O)c4ccccc4)c4ccccc4)C(C)=C1C3(C)C)[C@]1(OC(C)=O)CO[C@@H]1C[C@@H]2O [PTX, paclitaxel]	almost the same between the human and the mouse	–	–	–	–	83.9	84.5	71.2	87.5	–	–	–	–	–	–	–	–

From US20180289840A1, “Method for Evaluating Hematological Toxicity of Drug Under Evaluation, and Model for Evaluating Hematological Toxicity of Drug Under Evaluation” (Central Institute for Experimental Animals, priority 2015, published 2018)
